Experimental data as given in patent publication US9487570B2, “Glucagon like peptide analogs, composition, and method of use” (BETTA PHARMACEUTICALS CO., LTD, priority 2010, dated 2016).

Assays:
[1] = test system: cloned human GLP-1 receptor; experiment: cAMP formation in a cell line expressing the cloned human GLP-1 receptor; conditions: 2 h at 37 °C, cAMP by scintillation proximity assay; read-out: Cell based cAMP ED50
DPP-IV = DPP-IV (Homo sapiens, UniProt P27487); experiment: Stability to DPP-IV in vitro; conditions: isolated DPP-IV enzyme, pH 7.4
Method: DPP-IV (5 mU, 900 μL) was added, and the solutions were incubated at 37 ° C. At the indicated time points, 100 μL was removed from the reaction mixture, and reactions were terminated by the addition of 5 μL of 10% (v/v) TFA. Each sample was analyzed by MALDI-TOF MS and RP-HPLC as described.

[2] = from U.S. Pat. No. 5,118,666; cited from earlier work

DPP-IV, sequence (P27487 whole entry, species assumed): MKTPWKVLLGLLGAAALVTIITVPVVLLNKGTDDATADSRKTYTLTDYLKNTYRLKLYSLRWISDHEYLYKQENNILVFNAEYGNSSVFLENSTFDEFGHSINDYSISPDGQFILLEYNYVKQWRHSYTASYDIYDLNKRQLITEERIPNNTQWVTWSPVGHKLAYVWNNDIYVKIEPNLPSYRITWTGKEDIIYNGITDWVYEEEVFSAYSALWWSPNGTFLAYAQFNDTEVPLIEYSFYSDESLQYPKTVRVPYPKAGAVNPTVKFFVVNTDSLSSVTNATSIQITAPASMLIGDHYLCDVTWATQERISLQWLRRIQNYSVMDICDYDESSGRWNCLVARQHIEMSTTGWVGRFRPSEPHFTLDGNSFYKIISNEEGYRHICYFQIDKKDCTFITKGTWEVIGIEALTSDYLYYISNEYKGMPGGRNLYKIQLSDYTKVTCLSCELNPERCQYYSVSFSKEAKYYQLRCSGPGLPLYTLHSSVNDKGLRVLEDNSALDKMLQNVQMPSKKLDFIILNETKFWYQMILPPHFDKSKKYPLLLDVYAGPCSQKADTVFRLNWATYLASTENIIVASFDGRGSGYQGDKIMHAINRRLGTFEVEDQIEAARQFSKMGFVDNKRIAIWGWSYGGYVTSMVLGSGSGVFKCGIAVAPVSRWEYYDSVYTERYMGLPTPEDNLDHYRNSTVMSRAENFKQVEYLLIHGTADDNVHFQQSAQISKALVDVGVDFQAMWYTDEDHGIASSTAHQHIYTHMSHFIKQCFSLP

Compound | EC50 [1] | remaining at 1 h, 0.5 nmol/L (DPP-IV) | remaining at 24 h, 0.5 nmol/L (DPP-IV) | biological half-life [2]
CC[C@H](C)[C@H](NC(=O)[C@H](Cc1ccccc1)NC(=O)[C@H](CCC(=O)O)NC(=O)[C@H](CCCCN)NC(=O)[C@H](C)NC(=O)[C@H](C)NC(=O)[C@H](CCC(N)=O)NC(=O)CNC(=O)[C@H](CCC(=O)O)NC(=O)[C@H](CC(C)C)NC(=O)[C@H](Cc1ccc(O)cc1)NC(=O)[C@H](CO)NC(=O)[C@H](CO)NC(=O)[C@@H](NC(=O)[C@H](CC(=O)O)NC(=O)[C@H](CO)NC(=O)[C@@H](NC(=O)[C@H](Cc1ccccc1)NC(=O)[C@@H](NC(=O)CNC(=O)[C@H](CCC(=O)O)NC(=O)[C@H](C)NC(=O)[C@@H](N)Cc1c[nH]cn1)[C@@H](C)O)[C@@H](C)O)C(C)C)C(=O)N[C@@H](C)C(=O)N[C@@H](Cc1c[nH]c2ccccc12)C(=O)N[C@@H](CC(C)C)C(=O)N[C@H](C(=O)N[C@@H](CCCCN)C(=O)NCC(=O)N[C@@H](CCCNC(=N)N)C(N)=O)C(C)C [GLP-1, reference compound] | 0.06 nM |  |  | 
CCCCCCCCCCCCCCCC(=O)N[C@@H](CCC(=O)NCCCC[C@H](NC(=O)[C@H](C)NC(=O)[C@H](C)NC(=O)[C@H](CCC(N)=O)NC(=O)CNC(=O)[C@H](CCC(=O)O)NC(=O)[C@H](CC(C)C)NC(=O)[C@H](Cc1ccc(O)cc1)NC(=O)[C@H](CO)NC(=O)[C@H](CO)NC(=O)[C@@H](NC(=O)[C@H](CC(=O)O)NC(=O)[C@H](CO)NC(=O)[C@@H](NC(=O)[C@H](Cc1ccccc1)NC(=O)[C@@H](NC(=O)CNC(=O)[C@@H](/C=C/[C@H](C)NC(=O)[C@@H](N)Cc1c[nH]cn1)CCC(=O)O)[C@@H](C)O)[C@@H](C)O)C(C)C)C(=O)N[C@@H](CCC(=O)O)C(=O)N[C@@H](Cc1ccccc1)C(=O)N[C@H](C(=O)N[C@@H](C)C(=O)N[C@@H](Cc1c[nH]c2ccccc12)C(=O)N[C@@H](CC(C)C)C(=O)N[C@H](C(=O)N[C@@H](CCCNC(=N)N)C(=O)NCC(=O)N[C@@H](CCCNC(=N)N)C(=O)NCC(=O)O)C(C)C)[C@@H](C)CC)C(=O)O [N-ε^26-[γ-L-glutamyl(N-α-hexadecanoyl)]-[Q-linker-a8-9,Arg34]GLP-1-(7-37)-peptide] |  | 98% | 98% | 
CCCCCCCCCCCCCCCC(=O)N[C@@H](CCC(=O)NCCCC[C@H](NC(=O)[C@H](C)NC(=O)[C@H](C)NC(=O)[C@H](CCC(N)=O)NC(=O)CNC(=O)[C@H](CCC(=O)O)NC(=O)[C@H](CC(C)C)NC(=O)[C@H](Cc1ccc(O)cc1)NC(=O)[C@H](CO)NC(=O)[C@H](CO)NC(=O)[C@@H](NC(=O)[C@H](CC(=O)O)NC(=O)[C@H](CO)NC(=O)[C@@H](NC(=O)[C@H](Cc1ccccc1)NC(=O)[C@@H](NC(=O)CNC(=O)[C@H](CCC(=O)O)N[C@@H]([C@H](C)NC(=O)[C@@H](N)Cc1c[nH]cn1)C(F)(F)F)[C@@H](C)O)[C@@H](C)O)C(C)C)C(=O)N[C@@H](CCC(=O)O)C(=O)N[C@@H](Cc1ccccc1)C(=O)N[C@H](C(=O)N[C@@H](C)C(=O)N[C@@H](Cc1c[nH]c2ccccc12)C(=O)N[C@@H](CC(C)C)C(=O)N[C@H](C(=O)N[C@@H](CCCNC(=N)N)C(=O)NCC(=O)N[C@@H](CCCNC(=N)N)C(=O)NCC(=O)O)C(C)C)[C@@H](C)CC)C(=O)O [N-ε^26-[γ-L-glutamyl(N-α-hexadecanoyl)]-[Q-linker-d8,Arg34]GLP-1-(7-37)-peptide] |  | 98% | 98% | 
GLP-1(7-37)OH |  |  |  | 3 to 5 minutes
